Where two headings read alike, the source gives them in different places.
Assay: IV pharmacokinetics in male SD rats
Format: in vivo, rat
Details: for clearance: male, Sprague-Dawley, rat, plasma, iv
Description: Pharmacokinetic parameters of some examples were evaluated in male Sprague Dawley (SD) rats after intravenous (IV) and oral (PO) dosing. Male SD rats (5-6 weeks of age) were fasted for 12 hours before administration of the compound of interest. Animals were allowed access to food 2 h after dosing and water was given ad libitum. Except for the compound of Example 13, pharmacokinetic experiments comparing deuterium containing and non-deuterium containing compounds were performed at the same time using the same cohort of animals. The pharmacokinetic properties of the compound of Example 13 were evaluated separately and compared to previously generated data.
For IV dosing, a 0.5 mg/mL solution of the test compound was prepared in a vehicle consisting of 5% DMSO, 5% Cremophore, 90% normal saline. For a 1 mpk dose, 2 mL/kg of this dosing vehicle was administered to each rat by bolus injection into the tail vein. For lower doses, the dosing solution was diluted with the appropriate amount of vehicle. Example 3 was evaluated at 3 mpk by preparing a 1.5 mg/mL solution in the same vehicle and dosing 2 mL/kg. Blood samples from each animal was collected in di-sodium EDTA coated containers at 0.12, 0.25, 0.5, 1.0, 2.0, 4.0, 8.0 and 24.0 hours after dosing. Plasma was separated from the blood samples within 15 minutes following collection and stored at −20±5° C. before analysis.
A standard curve was generated from a stock solution of the test compound with known concentration in methanol. Working solutions having known concentrations ranging from 5-20,000 ng/mL were prepared from the stock solution by dilution with methanol:water (80:20 v/v). 5 uL of the working solutions were added to 45 uL of blank rat plasma to provide standard samples for analysis.
Plasma samples collected from rats after dosing were allowed to reach room temperature. A 50 uL aliquot of each plasma sample and the standard curve plasma samples were treated with 200 uL of acetonitrile containing an internal standard (100 ng/mL; warfarin/diclofenac) and mixed well. The samples were vortexed for 5 minutes followed by centrifugation for 5 minutes at 14000 rpm at 4° C. The supernatant (10 uL) was analyzed by LC-MS/MS (LC: Shimadzu SIL HTc, MS: MDS Sciex API-5500 & 4000 using 75%/25% acetonitrile/0.2% formic acid in Milli-Q water, flow rate: 1.0 mL/min, run time 3 minutes, Atlantis dC18(50×4.6 mm, 3 um; Waters®)) and the concentrations of the test compound in the plasma samples collected from rats at each time point were determined by comparison to the standard curve samples.
Pharmacokinetic parameters were calculated from the plasma concentrations at each time point using Phoenix WinNonlin (Version 7.0) by the non-compartmental analysis (NCA) method. Clearance values are reported as mL/min/kg. AUC values are reported as ng·h/mL.

[1] = 0.1 mg/kg, IV 0.1 mpk, ± one standard deviation, read-out: IV clearance 0.1 mpk
[2] = 1 mg/kg, IV 1 mpk, ± one standard deviation, read-out: IV clearance 1 mpk
[3] = 3 mg/kg, IV 3 mpk, ± one standard deviation, read-out: IV clearance 3 mpk
[4] = IV 0.1 mpk, ± one standard deviation

Row | SMILES | clearance [1] [mL/min/kg] | clearance [2] [mL/min/kg] | other results
1 | [2H]C([2H])(Oc1cc(C)n(-c2cc(-c3ccnc(C(C)(C)O)n3)ncc2C)c(=O)c1Cl)c1ccn(C)n1 (single isomer, unassigned) [Example 3-D2, 3-Chloro-2′-(2-(2-hydroxypropan-2-yl)pyrimidin-4-yl)-5′,6-dimethyl-4-((1-methyl-1H-pyrazol-3-yl)methoxy-d2)-2H-[1,4′-bipyridin]-2-one] | 12 ± 3 | 13 ± 2 | clearance [3]: 9 ± 1 mL/min/kg
2 | [2H]C([2H])(Oc1cc(C)n(-c2cc(-c3ccnc(C(C)(C)O)n3)ncc2C)c(=O)c1Cl)c1ccccc1 (single isomer, unassigned) [Example 5-D2, 3-Chloro-2′-(2-(2-hydroxypropan-2-yl)pyrimidin-4-yl)-5′,6-dimethyl-4-(phenylmethoxy-d2)-2H-[1,4′-bipyridin]-2-one] | 18 ± 1 | 13 ± 2 | –
3 | [2H]C([2H])(Oc1cc(C)n(-c2cc(-c3ccnc(C(C)(C)O)n3)ncc2C)c(=O)c1Cl)c1cccc(C(F)(F)F)c1 (single isomer, unassigned) [Example 7-D2, 3-Chloro-2′-(2-(2-hydroxypropan-2-yl)pyrimidin-4-yl)-5′,6-dimethyl-4-((3-(trifluoromethyl)phenyl)methoxy-d2)-2H-[1,4′-bipyridin]-2-one] | 4.9 ± 0.5 | 6 ± 1 | –
4 | [2H]C([2H])(Oc1cc(C)n(-c2cc(-c3ccnc(C(C)(C)O)n3)ncc2C)c(=O)c1Cl)c1cccc(OC)c1 (single isomer, unassigned) [Example 9-D2, 3-Chloro-2′-(2-(2-hydroxypropan-2-yl)pyrimidin-4-yl)-4-((3-methoxyphenyl)methoxy-d2)-5′,6-dimethyl-2H-[1,4′-bipyridin]-2-one] | 17 ± 3 | 18 ± 2 | –
5 | [2H]C([2H])(Oc1cc(C)n(-c2cc(-c3ccnc(C(C)(C)O)n3)ncc2C)c(=O)c1Cl)c1ccc(F)cc1F (single isomer, unassigned) [Example 11-D2, 3-Chloro-4-((2,4-difluorophenyl)methoxy-d2)-2′-(2-(2-hydroxypropan-2-yl)pyrimidin-4-yl)-5′,6-dimethyl-2H-[1,4′-bipyridin]-2-one] | – | 25 ± 3 | IV clearance 0.1 mpk [4]: 16 ± 5, mL/min/kg
6 | [2H]C([2H])(Oc1cc(C)n(-c2cc(-c3ccnc(C(C)(C)O)n3)ncc2C)c(=O)c1Cl)c1ccc(F)cc1F (single isomer, unassigned) [Example 11-H2, 3-chloro-4-((2,4-difluorophenyl)methoxy-d2)-2′-(2-(2-hydroxypropan-2-yl)pyrimidin-4-yl)-5′,6-dimethyl-2H-[1,4′-bipyridin]-2-one] | – | – | dose dependence of clearance (IV 0.1 and 1 mpk): strong dose dependence; IV clearance 0.1 mpk [4]: 40 ± 4 mL/min/kg; IV clearance 1 mpk (IV 1 mpk, ± one standard deviation): 22 ± 2 mL/min/kg
7 | [2H]C([2H])([2H])C(O)(c1nccc(-c2cc(-n3c(C)cc(OCc4ncc(F)cc4F)c(Cl)c3=O)c(C)cn2)n1)C([2H])([2H])[2H] (single isomer, unassigned) [Example 13-D6, 3-Chloro-4-((3,5-difluoropyridin-2-yl)methoxy)-2′-(2-(2-hydroxypropan-2-yl-1,1,1,3,3,3-d6)pyrimidin-4-yl)-5′,6-dimethyl-2H-[1,4′-bipyridin]-2-one] | – | 25 ± 7 | effect of deuterium substitution on clearance (IV, versus non-deuterated comparator Example 1-H2): did not result in a statistically significant reduction in clearance
8 | Cc1cnc(-c2ccnc(C(C)(C)O)n2)cc1-n1c(C)cc(OCc2ccn(C)n2)c(Cl)c1=O [Example 3-H2, 3-chloro-2′-(2-(2-hydroxypropan-2-yl)pyrimidin-4-yl)-5′,6-dimethyl-4-((1-methyl-1H-pyrazol-3-yl)methoxy)-2H-[1,4′-bipyridin]-2-one] | 13 ± 3 | 9 ± 2 | clearance [3]: 8 ± 1 mL/min/kg
9 | Cc1cnc(-c2ccnc(C(C)(C)O)n2)cc1-n1c(C)cc(OCc2ccccc2)c(Cl)c1=O [Example 5-H2, 3-chloro-2′-(2-(2-hydroxypropan-2-yl)pyrimidin-4-yl)-5′,6-dimethyl-4-(phenylmethoxy)-2H-[1,4′-bipyridin]-2-one] | 16 ± 2 | 15 ± 2 | –
10 | Cc1cnc(-c2ccnc(C(C)(C)O)n2)cc1-n1c(C)cc(OCc2cccc(C(F)(F)F)c2)c(Cl)c1=O [Example 7-H2, 3-chloro-2′-(2-(2-hydroxypropan-2-yl)pyrimidin-4-yl)-5′,6-dimethyl-4-((3-(trifluoromethyl)phenyl)methoxy)-2H-[1,4′-bipyridin]-2-one] | 7 ± 4 | 3.1 ± 0.3 | –
11 | COc1cccc(COc2cc(C)n(-c3cc(-c4ccnc(C(C)(C)O)n4)ncc3C)c(=O)c2Cl)c1 [Example 9-H2, 3-chloro-2′-(2-(2-hydroxypropan-2-yl)pyrimidin-4-yl)-4-((3-methoxyphenyl)methoxy)-5′,6-dimethyl-2H-[1,4′-bipyridin]-2-one] | 16 ± 3 | 12 ± 2 | –

Reference: US12403141B2, “Deuterated MK2 pathway inhibitors and methods of using the same” (ACLARIS THERAPEUTICS, INC., priority 2019, dated 2025)
